# Key:
# [1] = Inhibition of cholesterol uptake in MDCK2 cells at 20 to 100 uM after 1 hr by liquid scintillation counting; format: cell-based, Canis lupus familiaris; conditions: dog, mdck-ii
# [2] = Inhibition of cholesterol uptake in MDCK2 cells expressing human NPC1L1 at 20 to 100 uM after 1 hr by liquid scintillation counting; format: cell-based, Canis lupus familiaris; conditions: dog, mdck-ii
# [3] = Inhibition of cholesterol uptake in MDCK2 cells expressing human NPC1L1 after 1 hr by liquid scintillation counting; format: cell-based; conditions: Canis lupus familiaris, MDCK-II
structure (smiles),measurement,setting,value
O=C1[C@H](CC[C@H](O)c2ccc(F)cc2)[C@@H](c2ccc(O)cc2)N1c1ccc(F)cc1 [EZETIMIBE],inhibition (INH),[1],Not Active
same,inhibition (INH),[2],Active
O=C1[C@H](NC[C@@H](O)c2ccc(F)cc2)[C@@H](c2ccc(O)cc2)N1c1ccc(F)cc1,IC50,[3],60 µM
O=C1[C@H](NC[C@H](O)c2ccc(F)cc2)[C@@H](c2ccc(O)cc2)N1c1ccc(F)cc1,IC50,[3],80 µM
